Test results: ChEMBL document CHEMBL5236550, “Small molecule selenium-containing compounds: Recent development and therapeutic applications” (Eur J Med Chem, 2021)
In brackets after ≈: the same amount, converted by molar mass.

How the values were obtained:
Pichia kudriavzevii = assay: Antifungal activity against Candida krusei assessed as fungal growth inhibition incubated for 24 to 48 hrs by microdilution method; format: functional; conditions: time 24-48 hrs
MCF7 [1] = assay: Anticancer activity against human MCF7 cells assessed as cell growth incubation incubated for 72 hrs by MTT assay; format: functional, cell-based; conditions: MCF7, 72 h
PC-3 [2] = assay: Anticancer activity against human PC-3 cells assessed as cell growth incubation incubated for 72 hrs by MTT assay; format: functional, cell-based; conditions: PC-3, 72 h
[3] = Anticancer activity against human WM35 cells assessed as cell growth inhibition incubated for 72 hrs by MTS assay; format: functional, cell-based; conditions: WM35, 72 h, pooled result: one value given for 4 cell lines, strains, targets or settings
[4] = tested on: Encephalomyocarditis virus; assay: Antiviral activity against Encephalomyocarditis virus infected in A549 cells assessed as viral growth inhibition incubated for 1 hrs; format: functional, organism-based; conditions: Cardiovirus A, A549, 1 h
Human alphaherpesvirus 1 = assay: Antiviral activity against Herpes simplex virus 1infected in A549 cells assessed as viral growth inhibition incubated for 1 hrs; format: functional
Trypanosoma cruzi = assay: Antibacterial activity against Trypanosoma cruzi Dm28c assessed as inhibition of bacterial growth incubated for 72 hrs by microplate reader analysis; format: functional, organism-based
MCF7 [5] = assay: Anticancer activity against human MCF7 cells assessed as cell growth inhibition incubated for 72 hrs by MTT assay; format: functional, cell-based; conditions: MCF7, 72 h
MDA-MB-231 = assay: Anticancer activity against human MDA-MB-231 cells assessed as cell growth inhibition incubated for 72 hrs by MTT assay; format: functional, cell-based; conditions: MDA-MB-231, 72 h
[6] = Anticancer activity against human PMNL assessed as cell growth inhibition incubated for 5 mins by luminescence reader analysis; format: functional, cell-based
[7] = Anticancer activity against human PMNL assessed as cell growth inhibition; format: functional, cell-based
LNCaP = assay: Anticancer activity against human LNCaP cells assessed as cell growth inhibition incubated for 1.5 hrs by MTT assay; format: functional, cell-based
LNCaP C4-2 = assay: Anticancer activity against human LNCaP C4-2 cells assessed as cell growth inhibition incubated for 24 hrs by MTT assay; format: functional, cell-based; conditions: LNCaP C4-2, 24 h
Candida albicans [8] = assay: Antifungal activity against Candida albicans ATC90028 assessed as zone of inhibition; format: functional
Candida albicans [9] = assay: Antifungal activity against Candida albicans ATC90028 assessed as […] growth inhibition; format: functional
Carbonic anhydrase 1 = Carbonic anhydrase 1 (Homo sapiens, UniProt P00915); assay: Inhibition of human carbonic anhydrase 1 assessed as inhibition constant
Chain of Carbonic anhydrase 1 (P00915 whole entry): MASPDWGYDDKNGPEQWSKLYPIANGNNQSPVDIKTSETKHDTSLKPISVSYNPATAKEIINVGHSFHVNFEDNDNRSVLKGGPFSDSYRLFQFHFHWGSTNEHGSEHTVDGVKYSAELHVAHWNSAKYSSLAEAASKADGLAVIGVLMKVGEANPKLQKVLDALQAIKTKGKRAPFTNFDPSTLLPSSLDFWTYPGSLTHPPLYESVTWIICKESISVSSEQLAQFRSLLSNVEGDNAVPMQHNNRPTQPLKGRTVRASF

Carbonic anhydrase 2 = Carbonic anhydrase 2 (Homo sapiens, UniProt P00918); assay: Inhibition of human carbonic anhydrase 2 assessed as inhibition constant
MCF7S = assay: Anticancer activity against human MCF7S cells assessed as cell growth inhibition measured after 6 days by SRB assay; format: functional; conditions: time 6 day
HT-29 = assay: Anticancer activity against human HT-29 cells assessed as cell growth inhibition measured after 6 days by SRB assay; format: functional, cell-based; conditions: HT-29, 144 h
A549 = assay: Anticancer activity against human A549 cells assessed as cell growth inhibition measured after 6 days by SRB assay; format: functional, cell-based; conditions: A549, 144 h
Plasmodium falciparum = assay: […] inhibition incubated for 72 hrs by light microscopic analysis; format: functional, organism-based; conditions: K-1, 72 h
UACC-375 = assay: Anticancer activity against human UACC-375 cells assessed as cell growth inhibition measured after 6 days by SRB assay; format: functional, cell-based
DU-145 = assay: Anticancer activity against human DU-145 cells assessed as cell growth inhibition measured after 6 days by SRB assay; format: functional, cell-based; conditions: DU-145, 144 h
SH-SY5Y = assay: Anticancer activity against human SH-SY5Y cells assessed as cell viability incubated for 24 hrs by MTT assay relative to control; format: functional
PC-3 [10] = assay: Anticancer activity against human PC-3 cells assessed as cell growth inhibition measured upto 72 hrs by MTT assay; format: functional, cell-based; conditions: PC-3, 72 h
Caco-2 = assay: Anticancer activity against human Caco-2 cells assessed as cell growth inhibition measured upto 72 hrs by MTT assay; format: functional, cell-based; conditions: Caco-2, 72 h
MCF7 [11] = assay: Anticancer activity against human MCF7 cells assessed as cell growth inhibition measured upto 72 hrs by MTT assay; format: functional, cell-based; conditions: MCF7, 72 h
BGC-823 = assay: Anticancer activity against human BGC-823 cells assessed as cell growth inhibition measured upto 72 hrs by MTT assay; format: functional, cell-based; conditions: BGC-823, 72 h
[12] = Anticancer activity against human Ela-myc- cells assessed as cell growth inhibition by crystal violet staining based assay; format: functional; conditions: Ela-myc-1 cell
MCF7 [13] = assay: Anticancer activity against human MCF7 cells assessed as cell growth inhibition; format: functional, cell-based
PANC-1 = assay: Anticancer activity against human PANC-1 cells assessed as cell growth inhibition by crystal violet staining based assay; format: functional
PC-3M = assay: Anticancer activity against human PC-3M cells assessed as cell growth inhibition incubated for 24 hrs by MTT assay; format: functional, cell-based
WM-115 = assay: Anticancer activity against human WM-115 cells assessed as cell growth inhibition incubated for 72 hrs by MTT assay; format: functional
SW-620 = assay: Anticancer activity against human SW620 cells assessed as cell growth inhibition incubated for 72 hrs by MTT assay; format: functional, cell-based; conditions: SW-620, 72 h
A-375 = assay: Anticancer activity against human A-375 cells assessed as cell growth inhibition incubated for 72 hrs by MTT assay; format: functional, cell-based; conditions: A-375, 72 h
Hs68 = assay: Anticancer activity against human Hs68 cells assessed as cell growth inhibition incubated for 72 hrs by MTT assay; format: functional, cell-based; conditions: Hs68, 72 h
HL-60 = assay: Anticancer activity against human HL-60 cells assessed as cell growth inhibition incubated for 72 hrs by MTT assay; format: functional, cell-based; conditions: HL-60, 72 h
CNE-2 = assay: Anticancer activity against human CNE-2 cells assessed as cell growth inhibition incubated for 72 hrs by MTT assay; format: functional, cell-based; conditions: CNE-2, 72 h

Clc1ccc(-c2c[se]c(NN=C3CCSCC3)n2)cc1
MIC (Pichia kudriavzevii): 3.91 µg/mL (≈ 10.5 µM)

O=C(O)C[Se]C(=O)c1cccnc1Cl
IC50 (MCF7 [1]): 0.003 µM
IC50 (PC-3 [2]): 10 µM

Cc1ccc(-c2cc(C(F)(F)F)nn2-c2ccc(S(N)(=O)=O)cc2)cc1 [CELECOXIB]
IC50 [3]: 55.6 µM

CC(=O)n1[se]c2ccccc2c1=O
IC50 [4]: 6 µg/mL (≈ 25 µM)
MIC (Human alphaherpesvirus 1): 4 µg/mL (≈ 16.7 µM)

NC(=[Se])NN=C(c1cccc(Br)c1)c1cccc(Br)c1
IC50 (Trypanosoma cruzi): 1.2 µM

Clc1ccc2nc(-c3ccc4n[se]nc4c3)[nH]c2c1
IC50 (MCF7 [5]): 26.3 µM
IC50 (MDA-MB-231): 2.1 µM

Ic1ccc(-c2c[se]c(NN=C3CCSCC3)n2)cc1
MIC (Pichia kudriavzevii): 0.98 µg/mL (≈ 2.12 µM)

CCN(CC)C(=[Se])c1ccc(Cl)cc1
IC50 [6]: 20.3 µM

CN(C)C(N)=[Se]
IC50 [7]: 6.8 µM

Cc1ccc2nc(-c3ccc4n[se]nc4c3)[nH]c2c1
IC50 (MCF7 [5]): 4.1 µM
IC50 (MDA-MB-231): 1 µM

N#C[Se]Cc1ccc(C[Se]C#N)cc1
IC50 (LNCaP): 7 µM
IC50 (LNCaP C4-2): 7.6 µM

Brc1ccc(-c2c[se]c(NN=C3CCSCC3)n2)cc1
MIC (Pichia kudriavzevii): 3.91 µg/mL (≈ 9.42 µM)

FC(F)(F)c1ccc(-c2c[se]c(NN=C3CCSCC3)n2)cc1
MIC (Pichia kudriavzevii): 0.98 µg/mL (≈ 2.42 µM)

Clc1ccccc1C(c1ccccc1)(c1ccccc1)n1ccnc1 [CLOTRIMAZOLE]
inhibition zone (IZ) (Candida albicans [8]): 28 mm
MIC (Candida albicans [9]): 6.25 µg/mL (≈ 18.1 µM)

N#Cc1ccc(C(=O)[Se]CC(=O)O)cc1
IC50 (PC-3 [2]): 10 µM

COc1cc(OC)cc(C(=O)[Se]CC(=O)O)c1
IC50 (PC-3 [2]): 4 µM

[Se]=P(c1ccccn1)(c1ccccn1)c1ccccn1
Ki (Carbonic anhydrase 1): 0.0563 µM
Ki (Carbonic anhydrase 2): 0.0537 µM

O=c1c2ccccc2[se]n1Cc1ccccc1
IC50 [4]: 6 µg/mL (≈ 20.8 µM)
MIC (Human alphaherpesvirus 1): 2 µg/mL (≈ 6.94 µM)

COc1ccc(-c2c[se]c(NN=C3CCSCC3)n2)cc1
MIC (Pichia kudriavzevii): 3.91 µg/mL (≈ 10.7 µM)

c1ccc2[nH]c(-c3ccc4n[se]nc4c3)nc2c1
IC50 (MCF7 [5]): 15.4 µM
IC50 (MDA-MB-231): 12.3 µM

C[Se]CC[C@H](N)C(=O)O [SELENOMETHIONINE]
IC5 (MCF7S): 45 µM
IC50 (HT-29): 130 µM
IC50 (A549): 65 µM
IC50 (Plasmodium falciparum): 45 µM
IC50 (UACC-375; Homo sapiens, UACC-375, 144 h): 50 µM
IC5 (UACC-375; time 6 day): 50 µM
IC50 (DU-145): 40 µM

O=c1c2ccccc2[se]n1-c1ccccn1
Activity (SH-SY5Y): 84%

[Se]=C(c1ccccc1)N1CCCCC1
IC50 [6]: 11.3 µM

C=CCn1[se]c2ccccc2c1=O
Activity (SH-SY5Y): 86%

N#C[Se]CCCNC(=O)c1ccccc1Nc1cccc(C(F)(F)F)c1
IC50 (PC-3 [10]): 1.9 µM
IC50 (Caco-2): 1.9 µM
IC50 (MCF7 [11]): 1.9 µM
IC50 (BGC-823): 1.9 µM

O=C(O)C[Se]C(=O)c1ccccc1
IC50 (MCF7 [1]): 0.09 µM
IC50 (PC-3 [2]): 6.8 µM

C[Se](=O)O [METHYLSELENINIC ACID]
IC50 [12]: 3.2 µM
IC50 (Plasmodium falciparum): 10 µM
IC50 (MCF7 [13]): 2 µM
IC50 (PANC-1): 2.6 µM

O=C(C[C@@H](c1ccc(Cl)cc1)[C@@H]1CCCc2[se]nnc21)c1ccc(Cl)cc1
inhibition zone (IZ) (Candida albicans [8]): 15 mm
MIC (Candida albicans [9]): 12.5 µg/mL (≈ 26.9 µM)

Cc1ccc(C(=O)C[C@@H](c2ccc(Cl)cc2)[C@@H]2CCCc3[se]nnc32)cc1
inhibition zone (IZ) (Candida albicans [8]): 17 mm
MIC (Candida albicans [9]): 12.5 µg/mL (≈ 28.2 µM)

N#C[Se]Cc1cc(-c2ccccc2)n(-c2ccc(S(N)(=O)=O)cc2)n1
IC50 (PC-3M): 5 µM

NC(=[Se])N1CCCC1
IC50 [7]: 6.5 µM

N#C[Se]CCCCCC(=O)Nc1ccccc1
IC5 (WM-115): 0.8 µM

Brc1ccc2nc(-c3ccc4n[se]nc4c3)[nH]c2c1
IC50 (MCF7 [5]): 15.5 µM
IC50 (MDA-MB-231): 1.3 µM

CCOC(=O)n1[se]c2ccccc2c1=O
IC50 [4]: 10 µg/mL (≈ 37 µM)
MIC (Human alphaherpesvirus 1): 10 µg/mL (≈ 37 µM)

C[Se]C[C@H](N)C(=O)O [METHYLSELENOCYSTEINE]
IC50 (SW-620): 633 µM
IC50 (A-375): 54 µM
IC50 (Hs68): 50 µM
IC50 (MCF7 [5]): 193 µM

N[C@@H](C[Se][Se]C[C@H](N)C(=O)O)C(=O)O
IC50 (HL-60): 34.5 µM
IC50 (SW-620): 7.3 µM
IC50 (A-375): 3.6 µM
IC50 (Plasmodium falciparum): 65 µM
IC50 (CNE-2): 5.6 µM

O=C(O)C[Se]C(=O)Cc1ccccc1
IC50 (MCF7 [1]): 0.006 µM
IC50 (PC-3 [2]): 2.9 µM

CCCC/C(=N\NC(N)=[Se])c1ccc(Cl)c(Cl)c1
IC50 (Trypanosoma cruzi): 1.2 µM
